Values after ≈ are worked out from the molar mass of the structure shown. Like-named read-outs stand apart in the source and are kept apart here. Where a SMILES comes first, the peptide text is derived from it. Bridges are numbered along the chain shown (N, C = ends). [ ]: non-standard residue; d: D form. The star is where a group is joined. Ileψ(thiazoline)Cys = CC[C@H](C)[C@H](N)C1=N[C@H](C(=O)*)CS1; dOrn = NCCC[C@@H](N)C(=O)O
Key:
DB02473 = assay: Antibiotic MIC tests; format: cell-based, Janthinobacterium lividum; settings: strain DB02473
Procedure: (§1) The antibiotic resistance profile and MICs tests were performed using Janthinobacterium lividum grown from cultures purified and grown in vegitone LB broth.

DB00118 = assay: Antibiotic MIC tests; format: cell-based, Janthinobacterium lividum; settings: strain DB00118
Procedure: as §1

DB00121 = assay: Antibiotic MIC tests; format: cell-based, Janthinobacterium lividum; settings: strain DB00121
Procedure: as §1

DB02378 = assay: Antibiotic MIC tests; format: cell-based, Janthinobacterium lividum; settings: strain DB02378
Procedure: as §1

E. Coli ATCC25922 [1] = settings: cited from earlier work
E. Coli ATCC25922 [2] = assay: Antibiotic MIC tests; format: cell-based; settings: Escherichia coli
[3] = tested on: Janthinobacterium lividum strains; assay: Antibiotic MIC tests, resistance profile in words; format: cell-based; settings: Table 7 and 8
Procedure: as §1

[4] = tested on: Janthinobacterium lividum strains; assay: Internal antibiotic resistance tests (BD BBL Sensi-Disc, zone of inhibition); format: cell-based; settings: all 5 strains; disc content per antibiotic (e.g. penicillin 10 IU); FIG. 5
Procedure: One Janthinobacterium lividum colony of 3-day old grown in 50% BHI agar was mixed well in 1 ml of 1×PBS buffer, diluted 10× and 100×, respectively. 200 μl of diluted Janthinobacterium lividum cells were evenly plated onto R2A/BHI agar plates in triplicate in 150 mm petri dishes. Antibiotic discs (BD BBL Sensi-Disc antimicrobial susceptibility test discs) were dispensed using a Disc dispenser (BD BBL Sensi-Disc Designer Dispenser System, 12-Place). Plates were incubated for 2-3 days at room temperature and imaged at the end of incubation.
The sensitivity of Janthinobacterium lividum to antibiotics is reflected by a clear zone of inhibition of Janthinobacterium lividum cells surrounding the antibiotic discs. The zone of inhibition was measured using ImageJ and was transformed into cm for analysis.

[5] = Janthinobacterium lividum, read-out: MIC

Row | Molecule | MIC (DB02473; [5]) [µg/mL] | MIC (DB00118; [5]) [µg/mL] | MIC (DB00121; [5]) [µg/mL] | MIC (DB02378; [5]) [µg/mL] | MIC, CLSI QC ranges (E. Coli ATCC25922 [1]) [µg/mL] | MIC (E. Coli ATCC25922 [2]) [µg/mL] | sensitivity of Janthinobacterium lividum strains to antibiotics [3] | sensitivity of Janthinobacterium lividum to antibiotic discs [4] | MIC (DB02473) [µg/mL] | MIC (DB00118) [µg/mL] | MIC (DB00121) [µg/mL] | MIC (DB02378) [µg/mL]
1 | NCC[C@H](O)C(=O)N[C@@H]1C[C@H](N)[C@@H](O[C@H]2O[C@H](CN)[C@@H](O)[C@H](O)[C@H]2O)[C@H](O)[C@H]1O[C@H]1O[C@H](CO)[C@@H](O)[C@H](N)[C@H]1O [Amikacin] | 2 (≈ 3.42 µM) | 2 (≈ 3.42 µM) | 1 (≈ 1.71 µM) | 2 (≈ 3.42 µM) | 0.5 to 4 | 2 (≈ 3.42 µM) | – | – | – | – | – | –
2 | C[C@H]1[C@H](NC(=O)/C(=N\OC(C)(C)C(=O)O)c2csc(N)n2)C(=O)N1S(=O)(=O)O [Aztreonam] | 16 (≈ 36.7 µM) | 32 (≈ 73.5 µM) | 16 (≈ 36.7 µM) | 16 (≈ 36.7 µM) | – | 0.25 (≈ 0.574 µM) | less sensitive | – | – | – | – | –
3 | CC[C@H](C)[C@H](N)C1=N[C@H](C(=O)N[C@@H](CC(C)C)C(=O)N[C@H](CCC(=O)O)C(=O)N[C@H](C(=O)N[C@H]2CCCCNC(=O)[C@H](CC(N)=O)NC(=O)[C@@H](CC(=O)O)NC(=O)[C@H](Cc3cnc[nH]3)NC(=O)[C@@H](Cc3ccccc3)NC(=O)[C@H]([C@@H](C)CC)NC(=O)[C@@H](CCCN)NC2=O)[C@@H](C)CC)CS1 [Bacitracin] ({Ileψ(thiazoline)Cys}-L[dE]IK[dOrn]I[dF]H[dD]N; lactam 4-C) | > 64 | > 64 | > 64 | > 64 | – | > 64 | resistant | – | – | – | – | –
4 | O=C(N[C@H](CO)[C@H](O)c1ccc([N+](=O)[O-])cc1)C(Cl)Cl [Chloramphenicol] | 2 (≈ 6.19 µM) | 2 (≈ 6.19 µM) | 2 (≈ 6.19 µM) | 2 (≈ 6.19 µM) | 2 to 8 | 4 (≈ 12.4 µM) | less sensitive | sensitive | – | – | – | –
5 | O=C(O)c1cn(C2CC2)c2cc(N3CCNCC3)c(F)cc2c1=O [Ciprofloxacin] | 0.5 (≈ 1.51 µM) | 0.5 (≈ 1.51 µM) | 0.25 (≈ 0.754 µM) | 0.5 (≈ 1.51 µM) | – | – | – | sensitive | – | – | – | –
6 | CC[C@H]1OC(=O)[C@H](C)[C@@H](O[C@H]2C[C@@](C)(OC)[C@@H](O)[C@H](C)O2)[C@H](C)[C@@H](O[C@@H]2O[C@H](C)C[C@H](N(C)C)[C@H]2O)[C@](C)(O)C[C@@H](C)C(=O)[C@H](C)[C@@H](O)[C@]1(C)O [Erythromycin] | 15 (≈ 20.4 µM) | 15 (≈ 20.4 µM) | 8 (≈ 10.9 µM) | 8 (≈ 10.9 µM) | – | 64 (≈ 87.2 µM) | – | sensitive | – | – | – | –
7 | C[C@@H](O)[C@H]1C(=O)N2C(C(=O)O)=C(S[C@@H]3CN[C@H](C(=O)N(C)C)C3)[C@H](C)[C@H]12 [Meropenem] | 2 (≈ 5.22 µM) | 2 (≈ 5.22 µM) | 8 (≈ 20.9 µM) | 2 (≈ 5.22 µM) | – | < 0.063 | less sensitive | – | – | – | – | –
8 | [H]/N=C(/N)N[C@H]1[C@H](O)[C@@H](O)[C@H](O[C@@H]2O[C@@H](C)[C@](O)(C=O)[C@H]2O[C@@H]2O[C@@H](CO)[C@H](O)[C@@H](O)[C@@H]2NC)[C@@H](N/C(N)=N\[H])[C@@H]1O [streptomycin] | – | – | – | – | – | – | – | sensitive | – | – | – | –
9 | CN[C@H](CC(C)C)C(=O)N[C@H]1C(=O)N[C@@H](CC(N)=O)C(=O)N[C@H]2C(=O)N[C@H]3C(=O)N[C@H](C(=O)N[C@H](C(=O)O)c4cc(O)cc(O)c4-c4cc3ccc4O)[C@H](O)c3ccc(c(Cl)c3)Oc3cc2cc(c3O[C@@H]2O[C@H](CO)[C@@H](O)[C@H](O)[C@H]2O[C@H]2C[C@](C)(N)[C@H](O)[C@H](C)O2)Oc2ccc(cc2Cl)[C@H]1O [vancomycin] | – | – | – | – | – | – | – | sensitive | – | – | – | –
10 | Amoxicillin clavulanate | – | – | – | – | – | – | less sensitive | – | 1 | 1 | 0.5 | 1
11 | penicillin | – | – | – | – | – | – | – | sensitive | – | – | – | –

Source: patent publication US12064459B2, “Compositions and methods for improving skin health and for the treatment and prevention of diseases, disorders and conditions associated with pathogenic microbes” (priority 2019, dated 2024)
